Experimental data: patent publication US9675591B2, “Methods for treating seizure disorders and pain” (THE REGENTS OF THE UNIVERSITY OF CALIFORNIA, priority 2013, dated 2017)
“And” between values parts separate entries of the source, which are not always exact repeats. Equal values may be shown once. “Also recorded” adds a separate entry of the source. Read-outs that look alike come from different tables or passages of the source.

Key:
[1] = tested on: cultured hippocampal neurons; experiment: Synchronous intracellular Ca2+ oscillations (FLIPR); format: cell-based, mouse; conditions: for effect on picrotoxin (PTX) induced Ca2+ oscillations: added 10 min before PTX
Method: Animals were treated humanely and with regard for alleviation of suffering according to protocols approved by the Institutional Animal Care and Use Committee of the University of California, Davis. Hippocampal neuron cultures were dissociated from hippocampi dissected from C57Bl/6J mouse pups at postnatal day 0-1 and maintained in Neurobasal complete medium (Neurobasal medium supplemented with NS21, 0.5 mM L-glutamine, HEPES) with 5% fetal bovine serum. For Ca^2+ imaging studies using FLIPR, dissociated hippocampal cells were plated onto poly-L-lysine coated clear-bottom, black wall, 96-well imaging plate (BD, Franklin Lakes, N.J., USA) at a density of 0.8×10^5/well. The medium was changed twice a week by replacing half the volume of culture medium in the well with serum-free Neurobasal complete medium. The neurons were maintained at 37° C. with 5% CO2 and 95% humidity.
Hippocampal neurons 14-17 DIV were used for simultaneous measurements of intracellular Ca^2+ transients in all wells of a 96-well plate as described previously (Cao et al., 2012). After aspiration, the cells were incubated with 4 μM Fluo-4 in Locke's buffer containing 0.5 mg/ml bovine serum albumin for 1 h at 37° C. The plates were then transferred to the FLIPR (Molecular Devices, Sunnyvale, Calif., USA) cell plate stage. After 4 min of baseline recordings, Ca^2+ signals were then recorded for 10 min in the presence or absence of SKA-19 followed by addition of the Ca^2+ enhancing agents 4-AP or PTX, and the intracellular Ca^2+ concentration ([Ca^2+]i) was monitored for an additional 30 min. Ca^2+-enhancing agents triggered an immediate rise in [Ca^2+]i that was quantified by determining the area under the curve of the Fluo-4 arbitraiy fluorescence units for a duration of 5 min following agent addition.
Hippocampal neurons between 13-17 days in vitro (DIV) were used to investigate how Ca^2+ enhancing agent alters synchronous Ca^2+ oscillations that normally occur in healthy neurons at this developmental stage. This method permits simultaneous measurements of intracellular Ca^2+ transients in all wells of a 96-well plate as described previously (Cao et al., 2012). Baseline recordings were acquired in Locke's buffer (8.6 mM HEPES, 5.6 mM KCl, 154 mM NaCl, 5.6 mM glucose, 1.0 mM MgCl2, 2.3 mM CaCl2, and 0.0001 mM glycine, pH 7.4) for 10 min in presence or absence of SKA-19 followed by addition of the Ca^2+ enhancing agents 4-aminopyridine (4-AP) or picrotoxin using a programmable 96-channel pipetting robotic system, and the intracellular Ca^2+ concentration ([Ca^2+]i) was monitored for an additional 30 min. Unless otherwise indicated, pharmacological interventions were introduced 10 min prior to Ca^2+ enhancing agent. Ca enhancing agent triggered an immediate rise in [Ca^2+]i that was quantified by determining the area under the curve (AUC) of the Fluo-4 arbitrary fluorescence units for a duration of 5 min following Ca^2+ enhancing agent addition. Ca^2+ enhancing agent also altered the frequency and amplitude of neuronal synchronous Ca^2+ oscillations, which were analyzed during the 10 min period after addition of Ca^2+ enhancing agent […].

[2] = tested on: mechanical allodynia; experiment: Pain assay, partial ligation of the sciatic nerve (Von Frey); format: in vivo, rats; conditions: 5 mg/kg, 2 hour time point
Method: Rats were anesthetized with sodium pentobarbital, the upper thigh shaved and wiped off with ethanol and betadine. A small incision was made in the skin and the underlying muscle separated to expose the sciatic nerve. Approximately ⅓ to ½ of the nerve was tied off by passing a needle (7.0) and nylon suture through the nerve. The muscle and skin incision were afterwards closed off and the animals kept warm until they had recovered from the anesthesia. This procedure was performed on the right side (ipsilateral) while a sham surgery exposing but not ligating the nerve was performed on the left hind leg (contralateral). After 7 days of recovery animals were tested for the development of mechanical allodynia (abnormal response to a non-noxious stimulus) by putting them in a bottomless plexiglass box placed on a wire mesh (¼″) platform. After 30-60 min of acclimatization a baseline mechanical sensitivity was determined by applying a series of calibrated Von Frey fibers perpendicularly to the plantar surface of each hind paw and holding it there for about 6 s with enough force to slightly bend the fiber. […] This was repeated until a 50% threshold for withdrawal could be determined. The allodynic threshold was then redetermined after i.p. application of SKA-19 at 5 mg/kg at the time-to-peak effect determined in the acute seizure models.

[3] = ASP toxicity studies (species not stated); format: in vivo; conditions: 200 mg/kg
[4] = tested on: MES-induced seizures; experiment: Maximal electroshock (MES) seizure test, rats (ASP, methylcellulose suspension); format: in vivo; conditions: for ED50: Rattus norvegicus, read-out: ED50, seizure protection in the MES test
Method: SKA-19 was tested under the auspices of the National Institutes of Health's Anticonvulsant Screening Program (ASP). Experiments were performed in male albino CF (Carworth Farms) No. 1 mice or Sprague-Dawley rats according to the established protocols of the ASP (White et al., 2002). SKA-19 was suspended in 0.5% methylcellulose and administered in a volume that permits accuracy of dosage without excessively contributing to total body fluid (0.01 ml/g body weight for mice and 0.04 ml/10 g body weight for rats).
Animals received an electrical stimulus of 0.2 s duration (50 mA in mice and 150 mA in rat at 60 Hz) delivered via corneal electrodes primed with an electrolyte solution containing 0.5% tetracaine. Animals were restrained by hand and released immediately after stimulation to permit observation of the seizure throughout its entire course. In the initial screens to identify anticonvulsant activity mice were tested at 30 minutes and 4 hours following doses of 3, 10, 30, 100 and 300 mg/kg of SKA-19 and rats tested at time intervals between 0.25 and 4 hours following a standard oral dose of 30 mg/kg. In the subsequent, more quantitative tests at least four doses of SKA-19 (n=8 per dose) were tested at the previously determined time of peak effect (TPE). Abolition of hindlimb tonic extension indicates the test compound's ability to inhibit MES-induced seizure spread. Tonic extension is considered abolished if the hind limbs are not fully extended at 180° with the body.

SMILES: Nc1nc2ccc(SC(F)(F)F)cc2s1 [SKA-19, 6-((trifluoromethyl)thio)benzo[d]thiazol-2-amine]
- effect on spontaneous Ca2+ oscillations ([1]; SKA-19 1 μM or less): did not significantly inhibit; also recorded: no effect
- effect on spontaneous Ca2+ oscillations ([1]; SKA-19 3 μM or more): completely eliminated
- effect on 4-AP induced initial Ca2+ rise and oscillations ([1]; added 10 min before 4-AP): potently suppressed; also recorded: inhibited
- effect on picrotoxin (PTX) induced Ca2+ oscillations [1]: potently suppressed
- effect on picrotoxin (PTX) induced Ca2+ oscillations ([1]; listed as SKA-10): inhibited
- withdrawal threshold (Von Frey) [2]: significantly increased
- duration of sedation and neurological impairment [3]: up to 24 h
- ED50 ([4]; ip, 1 h time point): 1.6 mg/kg
- ED50 ([4]; oral (SKA-19: 4 h time point)): 2.33 mg/kg
- protective index PI (TD50/ED50) ([4]; i.p.): 8.9
- protective index PI (TD50/ED50) ([4]; oral): ~33 and 33.2
- protection from MES induced seizures, initial screen ([4]; oral 30 mg/kg, 0.25, 0.5, 1, 2 and 4 h): fully protected
